system: HEK293-STF3A cells; test: STF3A assay (luciferase reporter); type: cell-based; conditions: Homo sapiens, 24 h, 1 day of treatment
Protocol: HEK293-STF cell line was modified from Human embryonic kidney cell line HEK293 transfected with the STF reporter. HEK293-STF3A cell line was further modified from HEK293-STF cell line to express Wnt3A. This cell line was used to identify compounds that regulate either early or late signalling components of the Wnt pathway. L-Wnt3A (ATCC, #CRL-2647) cell line was used for providing Wnt3A conditioned media. The three cell lines were grown in DMEM (Dulbecco's Modified Eagle Medium) with 10% FBS (fetal bovine serum) incubated in 37° C. with 5% CO2. 2×10^4 HEK293-STF3A cells in 75 μl culture media were seeded in each well of white 96 well plates (Greiner #655098) and incubated overnight at 37° C. 25 μl serially diluted compound was added to the cells to give final concentration of 50 μM to 1.5 nM. After 1 day of treatment, 100 μl of Steady-Glo® Luciferase Assay reagent (#E2520, Promega) was added to each well and incubated for 10 minutes at room temperature. Luminescence was measured using Tecan Safire2® plate reader.

**Q.** Cn1c(=O)c2c(ncn2CC(=O)Nc2ccc(N3CCN(Cc4ccc(F)cc4)CC3)cn2)n(C)c1=O [Compound 56, 2-(1,3-dimethyl-2,6-dioxo-2,3-dihydro-1H-purin-7(6H)-yl)-N-(5-(4-(4-fluorobenzyl)piperazin-1-yl)pyridin-2-yl)acetamide] was tested. Which IC50 did it give?
**A.** < 1000 nM

**Q.** C[C@@H](C(=O)Nc1ccc(-c2ccccc2)nn1)n1cnc2c1c(=O)n(C)c(=O)n2C [Compound 79, (S)-2-(1,3-dimethyl-2,6-dioxo-2,3-dihydro-1H-purin-7(6H)-yl)-N-(6-phenylpyridazin-3-yl)propanamide] was tested. Which IC50 did it give?
**A.** < 100 nM

**Q.** For Cc1nc(-c2ccc(NC(=O)Cn3cnc4c3c(=O)n(C)c(=O)n4C)cc2)cs1 [Compound 33, 2-(1,3-dimethyl-2,6-dioxo-2,3-dihydro-1H-purin-7(6H)-yl)-N-(4-(2-methylthiazol-4-yl)phenyl)acetamide], which IC50 is on record?
**A.** < 100 nM

**Q.** With Cn1c(=O)c2c(nc(-c3ccccc3)n2CC(=O)Nc2ccc(-c3ccsc3)cc2)n(C)c1=O [Compound 69, 2-(1,3-dimethyl-2,6-dioxo-8-phenyl-2,3-dihydro-1H-purin-7(6H)-yl)-N-(4-(thiophen-3-yl)phenyl)acetamide] as the molecule, how does the IC50 read?
**A.** < 100 nM

**Q.** Cn1c(=O)c2c(ncn2CC(=O)Nc2ccc(-c3cccnn3)cc2)n(C)c1=O [Compound 6, 2-(1,3-dimethyl-2,6-dioxo-2,3-dihydro-1H-purin-7(6H)-yl)-N-(4-(pyridazin-3-yl)phenyl)acetamide] was tested. Which IC50 did it give?
**A.** < 1000 nM

**Q.** How did the IC50 turn out when CN(C(=O)Cn1cnc2c1c(=O)n(C)c(=O)n2C)c1ccc(-c2ccsc2)cc1 [Compound 17, 2-(1,3-dimethyl-2,6-dioxo-2,3-dihydro-1H-purin-7(6H)-yl)-N-methyl-N-(4-(thiophen-3-yl)phenyl)acetamide] was run?
**A.** > 10000 nM

**Q.** Which IC50 does the source give for Cc1cc(-c2ccccc2)ccc1NC(=O)Cn1cnc2c1c(=O)n(C)c(=O)n2C [Compound 13, 2-(1,3-dimethyl-2,6-dioxo-2,3-dihydro-1H-purin-7(6H)-yl)-N-(3-methylbiphenyl-4-yl)acetamide] here?
**A.** > 10000 nM

**Q.** Which IC50 does the source give for C[C@@H]1CN(C(=O)OC(C)(C)C)CCN1c1ccc(NC(=O)Cn2cnc3c2c(=O)n(C)c(=O)n3C)cc1 [Compound 16, (R)-tert-butyl 4-(4-(2-(1,3-dimethyl-2,6-dioxo-2,3-dihydro-1H-purin-7(6H)-yl)acetamido)phenyl)-3-methylpiperazine-1-carboxylate] here?
**A.** < 1000 nM

**Q.** How did the IC50 turn out when O=C(Cn1cnc2[nH]c(=O)[nH]c(=O)c21)Nc1ccc(-c2ccsc2)cc1 [Compound 71, 2-(2,6-dioxo-2,3-dihydro-1H-purin-7(6H)-yl)-N-(4-(thiophen-3-yl)phenyl) acetamide] was run?
**A.** > 10000 nM

**Q.** Which IC50 does the source give for Cn1c(=O)c2c(ncn2CC(=O)Nc2ccc(N3CCN(C(=O)c4ccccc4)CC3)cn2)n(C)c1=O [Compound 45, N-(5-(4-benzoylpiperazin-1-yl)pyridin-2-yl)-2-(1,3-dimethyl-2,6-dioxo-2,3-dihydro-1H-purin-7(6H)-yl)acetamide] here?
**A.** < 100 nM

**Q.** CCC(C(=O)Nc1ccc(-c2ccsc2)cc1)n1cnc2c1c(=O)n(C)c(=O)n2C (stereo not shown) [Compound 64, 2-(1,3-dimethyl-2,6-dioxo-2,3-dihydro-1H-purin-7(6H)-yl)-N-(4-(thiophen-3-yl)phenyl)butanamide] was tested. Which IC50 did it give?
**A.** < 100 nM

**Q.** Which IC50 does the source give for Cn1c(=O)c2c(ncn2CC(=O)Nc2ccc(-c3cncs3)cc2)n(C)c1=O [Compound 1, 2-(1,3-dimethyl-2,6-dioxo-2,3-dihydro-1H-purin-7(6H)-yl)-N-(4-(thiazol-5-yl)phenyl)acetamide] here?
**A.** < 100 nM

**Q.** Cn1c(=O)c2c(nc(Br)n2CC(=O)Nc2ccc(-c3ccsc3)cc2)n(C)c1=O [Compound 76, 2-(8-bromo-1,3-dimethyl-2,6-dioxo-2,3-dihydro-1H-purin-7(6H)-yl)-N-(4-(thiophen-3-yl)phenyl)acetamide] was tested. Which IC50 did it give?
**A.** < 100 nM

**Q.** For Cn1c(=O)c2c(ncn2CC(=O)Nc2ccc(-c3ccccn3)cc2)n(C)c1=O [Compound 25, 2-(1,3-dimethyl-2,6-dioxo-2,3-dihydro-1H-purin-7(6H)-yl)-N-(4-(pyridin-2-yl)phenyl)acetamide], which IC50 is on record?
**A.** < 100 nM

**Q.** With COc1ccccc1-c1ccc(NC(=O)Cn2cnc3c2c(=O)n(C)c(=O)n3C)cc1 [Compound 27, 2-(1,3-dimethyl-2,6-dioxo-2,3-dihydro-1H-purin-7(6H)-yl)-N-(2′-methoxybiphenyl-4-yl)acetamide] as the molecule, how does the IC50 read?
**A.** > 10000 nM

**Q.** How did the IC50 turn out when Cn1c(=O)c2c(ncn2CCCC(=O)Nc2ccc(-c3nccs3)cc2)n(C)c1=O [Compound 94, 4-(1,3-dimethyl-2,6-dioxo-1,2,3,6-tetrahydro-7H-purin-7-yl)-N-(4-(thiazol-2-yl)phenyl)butanamide] was run?
**A.** < 1000 nM

**Q.** Cn1c(=O)c2c(ncn2CC(=O)Nc2ccc(-c3ccccc3)s2)n(C)c1=O [Compound 2, 2-(1,3-dimethyl-2,6-dioxo-2,3-dihydro-1H-purin-7(6H)-yl)-N-(5-phenylthiophen-2-yl)acetamide] was tested. Which IC50 did it give?
**A.** < 100 nM

**Q.** How did the IC50 turn out when Cn1c(=O)c2c(ncn2CCC(=O)Nc2ccc(-c3nccs3)cc2)n(C)c1=O [Compound 93, 3-(1,3-dimethyl-2,6-dioxo-1,2,3,6-tetrahydro-7H-purin-7-yl)-N-(4-(thiazol-2-yl)phenyl)propanamide] was run?
**A.** < 1000 nM

**Q.** COC(=O)c1ccc(-c2ccc(NC(=O)Cn3cnc4c3c(=O)n(C)c(=O)n4C)cc2)cc1 [Compound 38, methyl 4′-(2-(1,3-dimethyl-2,6-dioxo-2,3-dihydro-1H-purin-7(6H)-yl)acetamido)biphenyl-4-carboxylate] was tested. Which IC50 did it give?
**A.** < 100 nM

**Q.** CC(C)C(C(=O)Nc1ccc(-c2ccccc2)cc1)n1cnc2c1c(=O)n(C)c(=O)n2C (stereo not shown) [Compound 65, N-(biphenyl-4-yl)-2-(1,3-dimethyl-2,6-dioxo-2,3-dihydro-1H-purin-7(6H)-yl)-3-methylbutanamide] was tested. Which IC50 did it give?
**A.** > 10000 nM

**Q.** Which IC50 does the source give for Cn1c(=O)c2c(ncn2CC(=O)Nc2ccc(-c3ccncc3)nn2)n(C)c1=O [Compound 12, 2-(1,3-dimethyl-2,6-dioxo-2,3-dihydro-1H-purin-7(6H)-yl)-N-(6-(pyridin-4-yl)pyridazin-3-yl)acetamide] here?
**A.** < 5000 nM

**Q.** How did the IC50 turn out when Cn1c(=O)c2c(ncn2CC(=O)Nc2ccc(-c3ccc(OC(F)(F)F)cc3)cc2)n(C)c1=O [Compound 31, 2-(1,3-dimethyl-2,6-dioxo-2,3-dihydro-1H-purin-7(6H)-yl)-N-(4′-(trifluoromethoxy)biphenyl-4-yl)acetamide] was run?
**A.** < 5000 nM

**Q.** With Cn1c(=O)c2c(ncn2CC(=O)Nc2ccc(N3CCN(Cc4cccc(Cl)c4)CC3)cn2)n(C)c1=O [Compound 21, N-(5-(4-(3-chlorobenzyl)piperazin-1-yl)pyridin-2-yl)-2-(1,3-dimethyl-2,6-dioxo-2,3-dihydro-1H-purin-7(6H)-yl)acetamide] as the molecule, how does the IC50 read?
**A.** < 100 nM

**Q.** For Cn1c(=O)c2c(ncn2CC(=O)Nc2ccc(N3CCN(C(=O)OC(C)(C)C)CC3)cn2)n(C)c1=O [Compound 20], which IC50 is on record?
**A.** < 100 nM

**Q.** With Cc1nc(-c2ccc(NC(=O)[C@H](C)n3cnc4c3c(=O)n(C)c(=O)n4C)nc2)cs1 [Compound 86, (S)-2-(1,3-dimethyl-2,6-dioxo-2,3-dihydro-1H-purin-7(6H)-yl)-N-(5-(2-methylthiazol-4-yl)pyridin-2-yl)propanamide] as the molecule, how does the IC50 read?
**A.** < 100 nM

**Q.** How did the IC50 turn out when Cn1c(=O)c2c(ncn2CC(=O)Nc2cc(-c3ccccc3)no2)n(C)c1=O [Compound 39, 2-(1,3-dimethyl-2,6-dioxo-2,3-dihydro-1H-purin-7(6H)-yl)-N-(3-phenylisoxazol-5-yl)acetamide] was run?
**A.** > 10000 nM

**Q.** For COc1cc(NC(=O)Cn2cnc3c2c(=O)n(C)c(=O)n3C)ccc1-c1ccccc1 [Compound 14, 2-(1,3-dimethyl-2,6-dioxo-2,3-dihydro-1H-purin-7(6H)-yl)-N-(2-methoxybiphenyl-4-yl)acetamide], which IC50 is on record?
**A.** < 1000 nM

**Q.** Cc1ccc(-c2ccc(NC(=O)Cn3cnc4c3c(=O)n(C)c(=O)n4C)cc2)cc1 [Compound 30, 2-(1,3-dimethyl-2,6-dioxo-2,3-dihydro-1H-purin-7(6H)-yl)-N-(4′-methylbiphenyl-4-yl)acetamide] was tested. Which IC50 did it give?
**A.** < 100 nM

**Q.** How did the IC50 turn out when CC(=O)N1CCN(c2ccc(NC(=O)Cn3cnc4c3c(=O)n(C)c(=O)n4C)nc2)CC1 [Compound 48] was run?
**A.** < 1000 nM

**Q.** With C[C@H]1CN(C(=O)OC(C)(C)C)CCN1c1ccc(NC(=O)Cn2cnc3c2c(=O)n(C)c(=O)n3C)cc1 [Compound 15, (S)-tert-butyl 4-(4-(2-(1,3-dimethyl-2,6-dioxo-2,3-dihydro-1H-purin-7(6H)-yl)acetamido)phenyl)-3-methylpiperazine-1-carboxylate] as the molecule, how does the IC50 read?
**A.** < 100 nM

**Q.** For CC(C(=O)Nc1ccc(-c2ccccc2)cc1)n1cnc2c1c(=O)n(C)c(=O)n2C (stereo not shown) [Compound 62, N-(biphenyl-4-yl)-2-(1,3-dimethyl-2,6-dioxo-2,3-dihydro-1H-purin-7(6H)-yl)propanamide], which IC50 is on record?
**A.** < 100 nM

**Q.** With Cn1c(=O)c2c(ncn2CC(=O)Nc2ccc(-n3ccnc3)cc2)n(C)c1=O [Compound 4, N-(4-(1H-imidazol-1-yl)phenyl)-2-(1,3-dimethyl-2,6-dioxo-2,3-dihydro-1H-purin-7(6H)-yl)acetamide] as the molecule, how does the IC50 read?
**A.** < 1000 nM

**Q.** For Cn1c(=O)c2c(ncn2CC(=O)Nc2ccc(N3CCN(C(=O)CC(C)(C)C)CC3)cn2)n(C)c1=O [Compound 47, 2-(1,3-dimethyl-2,6-dioxo-2,3-dihydro-1H-purin-7(6H)-yl)-N-(5-(4-(3,3-dimethylbutanoyl)piperazin-1-yl)pyridin-2-yl)acetamide], which IC50 is on record?
**A.** < 1000 nM

**Q.** Which IC50 does the source give for Cn1c(=O)c2c(ncn2CC(=O)Nc2ccc(-c3nccs3)cc2)n(C)c1=O [Compound 34, 2-(1,3-dimethyl-2,6-dioxo-2,3-dihydro-1H-purin-7(6H)-yl)-N-(4-(thiazol-2-yl)phenyl)acetamide] here?
**A.** < 100 nM

From US12559495B2 (Agency for Science, Technology and Research, priority 2013, dated 2026)
